Assay results as given in patent publication US6737383B1, “Herbicidal oxadiazolidines” (priority 1999, dated 2004).

What was measured:
[1] = test system: Digitaria sanguinalis (DIGSA); experiment: Test F preemergence, alone and in mixture with rimsulfuron, DIGSA; assay type: in vivo; conditions: 21 days after treatment
Procedure: (§1) Abutilon theophrasti (ABUTH), Chenopodium album (CHEAL), Amaranthus rudis (AMATA), Setaria faberii (SETFA), Panicum dichotomiflorum (PANDI), and Digitaria sanguinalis (DIGSA) were grown from seed in pots of an artificial potting mixture in a greenhouse. Compounds of the present invention were applied at 70 and 105 g ai/ha preemergence. Rimsulfuron was applied at 8.8 and 17.5 g ai/ha. Mixtures of the compounds of the present invention and rimsulfuron were also applied.
(§2) Following application, the plants were maintained by watering as needed. A fertilizer solution of Peter's 20-20-20 (10 pounds/5 gallons of water) plus Sprint 330, a Iron Chelate micronutrient, (113.5 grams/5 gallons of water) was injected into the water with an Anderson fertilizer injection system to provide approximately 219 ppm of nitrogen with each watering. Artificial lighting was used to supplement natural light to produce a 14 hour photoperiod and: an additional one hour light period was used between 1:00 am to 2:00 am for a night interruption. Greenhouse temperatures were targeted for 27° C. in the day and 21° C. at night. At 21 days after treatment, all plants were evaluated for injury as compared to control plants that were sprayed only with non-phytotoxic solvent.
(§3) Colby's equation was used to calculate the expected additive herbicidal effect of the mixtures of Compound 21 and the mixture partners listed above. […]

[2] = test system: Abutilon theophrasti (ABUTH); experiment: Test F preemergence, alone and in mixture with rimsulfuron, ABUTH; assay type: in vivo; conditions: 21 days after treatment
Procedure: as §1, §2, §3

[3] = test system: Chenopodium album (CHEAL); experiment: Test F preemergence, alone and in mixture with rimsulfuron, CHEAL; assay type: in vivo; conditions: 21 days after treatment
Procedure: as §1, §2, §3

Amaranthus rudis (AMATA) = experiment: Test F preemergence, alone and in mixture with rimsulfuron, AMATA; assay type: in vivo; conditions: 21 days after treatment
Procedure: as §1, §2, §3

Setaria faberii (SETFA) = experiment: Test F preemergence, alone and in mixture with rimsulfuron, SETFA; assay type: in vivo; conditions: 21 days after treatment
How it was run: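 Greenhouse pot plants treated preemergence with compound at 70 and 105 g ai/ha, rimsulfuron at 8.8 and 17.5 g ai/ha, or mixtures; 27° C day/21° C night, 14 hour photoperiod. Injury scored at 21 days after treatment against solvent-sprayed controls; expected additive effect of mixtures calculated by Colby's equation.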

[4] = test system: Panicum dichotomiflorum (PANDI); experiment: Test F preemergence, alone and in mixture with rimsulfuron, PANDI; assay type: in vivo; conditions: 21 days after treatment
Procedure: as §1, §2, §3

crabgrass = experiment: Test B pre/postemergence crabgrass; assay type: in vivo, Digitaria sanguinalis; conditions: Preemergence
How it was run: (§4)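 Herbicidal effect was estimated by eye on a ten-point control scale after plants spent twelve to sixteen days in a greenhouse following soil or foliar treatment. Foliar sprays targeted plants at one to four leaves; all doses were formulated in a non-phytotoxic solvent with surfactant.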

duck salad = experiment: Test B flood test duck salad; assay type: in vivo, Heteranthera limosa
How it was run: (§5)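 Flood test on plants grown to the 2-leaf stage; treated plants kept in greenhouse twelve to sixteen days, then visually rated against controls on a 0 (no effect) to 10 (complete control) scale.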

cocklebur = experiment: Test B pre/postemergence cocklebur; assay type: in vivo, Xanthium strumarium; conditions: Preemergence
How it was run: as §4

giant foxtail = experiment: Test B pre/postemergence giant foxtail; assay type: in vivo, Setaria faberii; conditions: Preemergence, scale of 0 to 10 where 0 is no effect and 10 is complete control
How it was run: as §4

smallflower flatsedge = experiment: Test B flood test smallflower flatsedge; assay type: in vivo, Cyperus difformis
How it was run: as §5

wheat = experiment: Test B pre/postemergence wheat; assay type: in vivo, Triticum aestivum; conditions: Preemergence, scale of 0 to 10 where 0 is no effect and 10 is complete control
How it was run: as §4

soybean = experiment: Test B pre/postemergence soybean; assay type: in vivo, Glycine max; conditions: Preemergence, scale of 0 to 10 where 0 is no effect and 10 is complete control
How it was run: as §4

bamyardgrass = experiment: Test B flood test barnyardgrass; assay type: in vivo, Echinochloa crus-galli
How it was run: as §5

blackgrass = experiment: Test B pre/postemergence blackgrass; assay type: in vivo, Alopecurus myosuroides; conditions: Preemergence
How it was run: as §4

bedstraw = experiment: Test B pre/postemergence bedstraw; assay type: in vivo, Galium aparine; conditions: Preemergence
How it was run: as §4

pigweed = experiment: Test B pre/postemergence pigweed; assay type: in vivo, Amaranthus retroflexus; conditions: Preemergence, scale of 0 to 10 where 0 is no effect and 10 is complete control
How it was run: as §4

morningglory = experiment: Test B pre/postemergence morningglory; assay type: in vivo, Ipomoea hederacea; conditions: Preemergence, scale of 0 to 10 where 0 is no effect and 10 is complete control
How it was run: as §4

rice = experiment: Test B flood test rice; assay type: in vivo, Oryza sativa
How it was run: as §5

surinam grass = experiment: Test B pre/postemergence surinam grass; assay type: in vivo, Brachiaria decumbens; conditions: Preemergence
How it was run: as §4

wild oat = experiment: Test B pre/postemergence wild oat; assay type: in vivo, Avena fatua; conditions: Preemergence, Rate 125 g/ha; scale of 0 to 10 where 0 is no effect and 10 is complete control
How it was run: as §4

corn = experiment: Test B pre/postemergence corn; assay type: in vivo, Zea mays; conditions: Preemergence
How it was run: as §4

rape = experiment: Test B pre/postemergence rape; assay type: in vivo, Brassica napus; conditions: Preemergence, scale of 0 to 10 where 0 is no effect and 10 is complete control
How it was run: as §4

purple nutsedge = experiment: Test B pre/postemergence purple nutsedge; assay type: in vivo, Cyperus rotundus; conditions: Preemergence, scale of 0 to 10 where 0 is no effect and 10 is complete control
How it was run: as §4

sugar beet = experiment: Test B pre/postemergence sugar beet; assay type: in vivo, Beta vulgaris; conditions: Preemergence, scale of 0 to 10 where 0 is no effect and 10 is complete control
How it was run: as §4

velvetleaf = experiment: Test B pre/postemergence velvetleaf; assay type: in vivo, Abutilon theophrasti; conditions: Preemergence, scale of 0 to 10 where 0 is no effect and 10 is complete control
How it was run: as §4

[5] = Alone: Cmpd. 0, Rimsulfuron rate 8.8
[6] = Alone: Cmpd. 0, Rimsulfuron rate 17.5
[7] = Rate 62 g/ha, scale of 0 to 10 where 0 is no effect and 10 is complete control
[8] = Rate 125 g/ha, scale of 0 to 10 where 0 is no effect and 10 is complete control
[9] = Rate 250 g/ha, scale 0 to 10 (0 no effect, 10 complete control)
[10] = Rate 62 g/ha, flood test species, Pre-emergence, visual evaluation after twelve to sixteen days
[11] = Rate 125 g/ha, under heading Pre-emergence, flood test species, visual evaluation after twelve to sixteen days
[12] = Rate 250 g/ha, Pre-emergence (flood test species), scale 0 to 10, 0 is no effect, 10 is complete control
[13] = Rate 500 g/ha, Pre-emergence section of Table B, 0 to 10 scale (0 no effect, 10 complete control)
[14] = Rate 500 g/ha, scale of 0 to 10 where 0 is no effect and 10 is complete control

CCS(=O)(=O)c1cccnc1S(=O)(=O)NC(=O)Nc1nc(OC)cc(OC)n1 [rimsulfuron]
40%: ABUTH Observed [2, 6]
90%: SETFA Observed (Setaria faberii (SETFA); [6])
10%: AMATA Observed (Amaranthus rudis (AMATA); [5])
60%: CHEAL Observed [3, 6]
95%: DIGSA Observed [1, 5] | PANDI Observed [4, 6]
20%: ABUTH Observed [2, 5]
75%: SETFA Observed (Setaria faberii (SETFA); [5]) | PANDI Observed [4, 5]
15%: AMATA Observed (Amaranthus rudis (AMATA); [6])
100%: DIGSA Observed [1, 6]
25%: CHEAL Observed [3, 5]

CC(C)N(C(=O)n1oc(=O)n(C(C)C2CCC2)c1=O)c1ccc(F)cc1F (stereo not drawn) [Compound 702]
0: Plant response rating, Ducksalad (0 to 10 scale, 0 is no effect, 10 is complete control) (duck salad; [10]) | Ducksalad plant response rating (0 to 10 scale, 0 is no effect, 10 is complete control) (duck salad; [11]) | Ducksalad plant response rating (duck salad; [12]) | Ducksalad plant response rating (duck salad; [13]) | Cocklebur plant response rating (cocklebur; [7]) | Plant response rating, Cocklebur (cocklebur; [8]) | Plant response rating, Cocklebur (cocklebur; [9]) | Plant response rating, Cocklebur (cocklebur; [14]) | Plant response rating, S. Flatsedge (0 to 10 scale, 0 is no effect, 10 is complete control) (smallflower flatsedge; [10]) | S. Flatsedge plant response rating (0 to 10 scale, 0 is no effect, 10 is complete control) (smallflower flatsedge; [11]) | S. Flatsedge plant response rating (smallflower flatsedge; [12]) | S. Flatsedge plant response rating (smallflower flatsedge; [13]) | Wheat plant response rating (wheat; Rate 62 g/ha) | Plant response rating, Wheat (wheat; Rate 125 g/ha) | Soybean plant response rating (soybean; Rate 62 g/ha) | Plant response rating, Soybean (soybean; Rate 125 g/ha) | Plant response rating, Barnyardgrass (0 to 10 scale, 0 is no effect, 10 is complete control) (bamyardgrass; [10]) | Barnyardgrass plant response rating (0 to 10 scale, 0 is no effect, 10 is complete control) (bamyardgrass; [11]) | Barnyardgrass plant response rating (bamyardgrass; [12]) | Barnyardgrass plant response rating (bamyardgrass; [13]) | Bedstraw plant response rating (bedstraw; [7]) | Plant response rating, Bedstraw (bedstraw; [8]) | Plant response rating, Bedstraw (bedstraw; [9]) | Plant response rating, Bedstraw (bedstraw; [14]) | Morningglory plant response rating (morningglory; Rate 62 g/ha) | Plant response rating, Morningglory (morningglory; Rate 125 g/ha) | Plant response rating, Rice (0 to 10 scale, 0 is no effect, 10 is complete control) (rice; [10]) | Rice plant response rating (0 to 10 scale, 0 is no effect, 10 is complete control) (rice; [11]) | Rice plant response rating (rice; [12]) | Rice plant response rating (rice; [13]) | B. signalgrass plant response rating (surinam grass; [7]) | Plant response rating, Wild oats (wild oat) | Corn plant response rating (corn; [7]) | Plant response rating, Corn (corn; [8]) | Plant response rating, Corn (corn; [9]) | Rape plant response rating (rape; Rate 62 g/ha) | Plant response rating, Rape (rape; Rate 125 g/ha) | Nutsedge plant response rating (purple nutsedge; Rate 62 g/ha) | Plant response rating, Nutsedge (purple nutsedge; Rate 125 g/ha) | Sugarbeets plant response rating (sugar beet; Rate 62 g/ha) | Plant response rating, Sugarbeets (sugar beet; Rate 125 g/ha) | Velvetleaf plant response rating (velvetleaf; Rate 62 g/ha) | Plant response rating, Velvetleaf (velvetleaf; Rate 125 g/ha)
10: Plant response rating, Crabgrass (crabgrass; [8]) | Plant response rating, Crabgrass (crabgrass; [9]) | Giant foxtail plant response rating (giant foxtail; Rate 62 g/ha) | Plant response rating, Giant foxtail (giant foxtail; Rate 125 g/ha) | Plant response rating, Blackgrass (blackgrass; [14])
2: Blackgrass plant response rating (blackgrass; [7]) | Plant response rating, Blackgrass (blackgrass; [8]) | Redroot pigweed plant response rating (pigweed; Rate 62 g/ha) | Plant response rating, B. signalgrass (surinam grass; [8]) | Plant response rating, B. signalgrass (surinam grass; [9])
9: Crabgrass plant response rating (crabgrass; [7]) | Plant response rating, Blackgrass (blackgrass; [9])
8: Plant response rating, B. signalgrass (surinam grass; [14])
5: Plant response rating, Redroot pigweed (pigweed; Rate 125 g/ha)
